How the values were obtained:
[1] = target: T1, Muscarinic acetylcholine receptor M2 (Homo sapiens, UniProt P08172)
T1 sequence (P08172 whole entry): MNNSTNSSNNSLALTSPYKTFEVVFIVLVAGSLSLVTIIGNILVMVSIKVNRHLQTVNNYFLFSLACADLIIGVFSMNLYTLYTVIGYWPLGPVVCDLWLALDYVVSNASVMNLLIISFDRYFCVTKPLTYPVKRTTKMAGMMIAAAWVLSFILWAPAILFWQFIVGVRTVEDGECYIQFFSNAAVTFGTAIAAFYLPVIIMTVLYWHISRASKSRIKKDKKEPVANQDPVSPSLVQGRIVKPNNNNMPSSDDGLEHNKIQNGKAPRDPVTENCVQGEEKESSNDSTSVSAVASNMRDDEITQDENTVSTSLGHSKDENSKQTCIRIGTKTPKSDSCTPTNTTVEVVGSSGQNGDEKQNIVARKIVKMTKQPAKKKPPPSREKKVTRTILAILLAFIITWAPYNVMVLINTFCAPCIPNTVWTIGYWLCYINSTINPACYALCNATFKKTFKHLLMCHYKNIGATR

[2] = target: 5-hydroxytryptamine receptor 2B (Homo sapiens, UniProt P41595); type: functional, cell-based
Chain of 5-hydroxytryptamine receptor 2B (P41595 whole entry): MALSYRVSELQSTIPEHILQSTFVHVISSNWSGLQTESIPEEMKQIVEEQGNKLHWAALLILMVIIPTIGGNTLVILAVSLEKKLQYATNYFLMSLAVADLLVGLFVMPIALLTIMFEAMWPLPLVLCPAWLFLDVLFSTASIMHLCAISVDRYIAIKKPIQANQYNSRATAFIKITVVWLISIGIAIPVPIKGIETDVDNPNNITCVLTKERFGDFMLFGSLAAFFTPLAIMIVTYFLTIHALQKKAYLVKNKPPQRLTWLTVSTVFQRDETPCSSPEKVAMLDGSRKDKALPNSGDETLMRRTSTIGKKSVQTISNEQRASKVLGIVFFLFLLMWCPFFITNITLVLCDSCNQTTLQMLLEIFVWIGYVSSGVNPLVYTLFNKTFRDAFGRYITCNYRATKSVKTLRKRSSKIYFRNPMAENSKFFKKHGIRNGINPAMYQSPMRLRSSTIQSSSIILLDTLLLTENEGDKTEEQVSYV

[3] = target: T2, Alpha-2A adrenergic receptor (Homo sapiens, UniProt P08913)
T2 sequence (P08913 whole entry): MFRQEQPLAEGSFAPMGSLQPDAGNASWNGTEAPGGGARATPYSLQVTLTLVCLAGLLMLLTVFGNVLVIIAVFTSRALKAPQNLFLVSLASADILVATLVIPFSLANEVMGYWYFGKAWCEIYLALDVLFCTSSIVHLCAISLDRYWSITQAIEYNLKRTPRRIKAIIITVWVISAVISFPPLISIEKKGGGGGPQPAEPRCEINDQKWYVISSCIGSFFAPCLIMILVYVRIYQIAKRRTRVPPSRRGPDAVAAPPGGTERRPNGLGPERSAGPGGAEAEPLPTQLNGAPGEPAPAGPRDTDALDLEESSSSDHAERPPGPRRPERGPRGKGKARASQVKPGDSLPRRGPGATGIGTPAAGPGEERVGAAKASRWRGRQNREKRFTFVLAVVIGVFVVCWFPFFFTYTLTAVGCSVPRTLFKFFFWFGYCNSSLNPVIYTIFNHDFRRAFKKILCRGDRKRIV

Acetylcholinesterase = Acetylcholinesterase (Homo sapiens, UniProt P22303); type: functional
Chain of Acetylcholinesterase (P22303 whole entry): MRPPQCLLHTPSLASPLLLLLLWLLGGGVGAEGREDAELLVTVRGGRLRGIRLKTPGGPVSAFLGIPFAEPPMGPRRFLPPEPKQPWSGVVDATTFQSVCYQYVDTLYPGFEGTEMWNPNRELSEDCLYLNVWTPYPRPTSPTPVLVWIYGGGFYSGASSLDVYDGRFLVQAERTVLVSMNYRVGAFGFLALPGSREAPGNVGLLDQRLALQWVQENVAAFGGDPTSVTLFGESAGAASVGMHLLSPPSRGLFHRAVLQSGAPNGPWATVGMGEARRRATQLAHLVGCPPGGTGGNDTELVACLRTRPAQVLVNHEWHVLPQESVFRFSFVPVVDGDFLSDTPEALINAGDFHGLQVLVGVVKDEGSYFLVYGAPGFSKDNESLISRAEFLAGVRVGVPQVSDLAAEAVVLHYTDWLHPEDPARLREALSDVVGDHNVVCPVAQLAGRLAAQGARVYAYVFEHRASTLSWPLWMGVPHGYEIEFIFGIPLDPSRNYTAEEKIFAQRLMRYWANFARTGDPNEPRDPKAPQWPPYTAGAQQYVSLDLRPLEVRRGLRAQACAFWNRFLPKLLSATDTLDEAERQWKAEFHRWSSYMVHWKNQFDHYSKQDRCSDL

Thromboxane A2 receptor [4] = target: T3, Thromboxane A2 receptor (Homo sapiens, UniProt P21731); type: functional, cell-based
T3 sequence (P21731 whole entry): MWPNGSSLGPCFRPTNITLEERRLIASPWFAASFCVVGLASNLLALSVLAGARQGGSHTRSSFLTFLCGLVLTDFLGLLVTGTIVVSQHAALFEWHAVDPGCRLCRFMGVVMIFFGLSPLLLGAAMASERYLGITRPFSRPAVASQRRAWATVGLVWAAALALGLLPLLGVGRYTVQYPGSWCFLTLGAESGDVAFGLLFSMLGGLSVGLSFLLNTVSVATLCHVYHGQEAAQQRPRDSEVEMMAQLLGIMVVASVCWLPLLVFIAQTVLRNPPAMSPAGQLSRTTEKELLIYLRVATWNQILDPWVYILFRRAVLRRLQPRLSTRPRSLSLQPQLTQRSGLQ

Histamine H3 receptor = Histamine H3 receptor (Homo sapiens, UniProt Q9Y5N1)
Chain of Histamine H3 receptor (Q9Y5N1 whole entry): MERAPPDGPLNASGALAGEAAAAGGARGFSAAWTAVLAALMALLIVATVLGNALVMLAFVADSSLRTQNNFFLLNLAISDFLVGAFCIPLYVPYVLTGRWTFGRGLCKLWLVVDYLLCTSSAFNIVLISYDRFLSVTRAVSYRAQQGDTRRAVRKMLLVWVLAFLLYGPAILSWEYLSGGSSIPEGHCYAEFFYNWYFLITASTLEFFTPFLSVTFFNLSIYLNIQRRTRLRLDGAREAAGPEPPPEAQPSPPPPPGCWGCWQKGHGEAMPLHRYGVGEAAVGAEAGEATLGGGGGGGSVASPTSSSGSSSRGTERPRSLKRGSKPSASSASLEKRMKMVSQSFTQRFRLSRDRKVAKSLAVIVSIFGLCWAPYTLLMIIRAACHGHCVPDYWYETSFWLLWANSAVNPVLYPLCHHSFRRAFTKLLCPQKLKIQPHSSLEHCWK

[5] = target: cGMP-inhibited 3',5'-cyclic phosphodiesterase 3A (Homo sapiens, UniProt Q14432); type: functional
Chain of cGMP-inhibited 3',5'-cyclic phosphodiesterase 3A (Q14432 whole entry): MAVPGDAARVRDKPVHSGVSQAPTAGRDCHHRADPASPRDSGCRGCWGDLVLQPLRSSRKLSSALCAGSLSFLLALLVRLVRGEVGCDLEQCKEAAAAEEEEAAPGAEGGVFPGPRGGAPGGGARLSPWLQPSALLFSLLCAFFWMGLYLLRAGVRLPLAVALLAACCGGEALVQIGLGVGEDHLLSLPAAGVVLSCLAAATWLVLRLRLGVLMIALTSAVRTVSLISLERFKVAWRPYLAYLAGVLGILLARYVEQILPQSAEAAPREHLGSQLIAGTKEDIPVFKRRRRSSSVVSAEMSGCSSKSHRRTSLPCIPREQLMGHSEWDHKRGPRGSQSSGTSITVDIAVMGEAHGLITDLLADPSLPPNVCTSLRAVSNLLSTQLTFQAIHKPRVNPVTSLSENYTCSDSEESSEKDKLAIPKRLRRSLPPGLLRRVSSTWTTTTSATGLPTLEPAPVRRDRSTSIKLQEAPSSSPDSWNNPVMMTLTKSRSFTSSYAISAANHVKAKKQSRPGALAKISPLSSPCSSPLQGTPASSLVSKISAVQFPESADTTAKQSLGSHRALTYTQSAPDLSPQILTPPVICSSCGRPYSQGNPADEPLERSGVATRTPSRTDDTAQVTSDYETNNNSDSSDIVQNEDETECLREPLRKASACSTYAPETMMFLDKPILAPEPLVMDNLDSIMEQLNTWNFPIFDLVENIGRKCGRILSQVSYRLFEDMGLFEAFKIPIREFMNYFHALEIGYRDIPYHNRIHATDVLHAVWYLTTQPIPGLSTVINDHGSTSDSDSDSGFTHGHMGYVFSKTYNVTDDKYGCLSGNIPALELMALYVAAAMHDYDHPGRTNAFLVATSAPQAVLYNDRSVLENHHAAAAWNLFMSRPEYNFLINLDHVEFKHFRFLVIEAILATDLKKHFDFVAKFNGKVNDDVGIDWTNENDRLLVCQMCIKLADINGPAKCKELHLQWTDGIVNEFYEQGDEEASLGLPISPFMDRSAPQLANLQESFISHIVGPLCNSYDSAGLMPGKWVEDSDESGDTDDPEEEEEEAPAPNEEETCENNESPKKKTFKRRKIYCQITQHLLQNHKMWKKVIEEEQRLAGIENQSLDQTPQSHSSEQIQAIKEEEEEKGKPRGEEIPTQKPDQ

[6] = target: T4, Amine oxidase [flavin-containing] A (Homo sapiens, UniProt P21397); type: functional
T4 sequence (P21397 whole entry): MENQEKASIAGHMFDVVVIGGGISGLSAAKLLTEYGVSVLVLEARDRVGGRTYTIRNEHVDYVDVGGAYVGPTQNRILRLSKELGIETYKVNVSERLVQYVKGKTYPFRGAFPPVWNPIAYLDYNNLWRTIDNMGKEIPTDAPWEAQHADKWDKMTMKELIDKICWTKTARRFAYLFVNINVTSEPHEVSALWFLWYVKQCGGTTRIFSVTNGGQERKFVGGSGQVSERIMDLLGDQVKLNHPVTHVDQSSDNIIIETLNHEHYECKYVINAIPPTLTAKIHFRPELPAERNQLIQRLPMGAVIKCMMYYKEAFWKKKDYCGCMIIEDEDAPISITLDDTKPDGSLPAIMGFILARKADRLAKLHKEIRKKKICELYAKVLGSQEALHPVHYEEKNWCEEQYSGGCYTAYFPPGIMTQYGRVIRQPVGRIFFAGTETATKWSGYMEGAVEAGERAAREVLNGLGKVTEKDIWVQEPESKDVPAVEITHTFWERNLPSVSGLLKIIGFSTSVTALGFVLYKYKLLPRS

Thromboxane A2 receptor [7] = target: T3, Thromboxane A2 receptor; type: functional, cell-based; remark: listed apart in the source
Prothrombin = Prothrombin (Homo sapiens, UniProt P00734); type: functional
[8] = target: 3',5'-cyclic-AMP phosphodiesterase 4A (Homo sapiens, UniProt P27815); type: functional
Chain of 3',5'-cyclic-AMP phosphodiesterase 4A (P27815 whole entry): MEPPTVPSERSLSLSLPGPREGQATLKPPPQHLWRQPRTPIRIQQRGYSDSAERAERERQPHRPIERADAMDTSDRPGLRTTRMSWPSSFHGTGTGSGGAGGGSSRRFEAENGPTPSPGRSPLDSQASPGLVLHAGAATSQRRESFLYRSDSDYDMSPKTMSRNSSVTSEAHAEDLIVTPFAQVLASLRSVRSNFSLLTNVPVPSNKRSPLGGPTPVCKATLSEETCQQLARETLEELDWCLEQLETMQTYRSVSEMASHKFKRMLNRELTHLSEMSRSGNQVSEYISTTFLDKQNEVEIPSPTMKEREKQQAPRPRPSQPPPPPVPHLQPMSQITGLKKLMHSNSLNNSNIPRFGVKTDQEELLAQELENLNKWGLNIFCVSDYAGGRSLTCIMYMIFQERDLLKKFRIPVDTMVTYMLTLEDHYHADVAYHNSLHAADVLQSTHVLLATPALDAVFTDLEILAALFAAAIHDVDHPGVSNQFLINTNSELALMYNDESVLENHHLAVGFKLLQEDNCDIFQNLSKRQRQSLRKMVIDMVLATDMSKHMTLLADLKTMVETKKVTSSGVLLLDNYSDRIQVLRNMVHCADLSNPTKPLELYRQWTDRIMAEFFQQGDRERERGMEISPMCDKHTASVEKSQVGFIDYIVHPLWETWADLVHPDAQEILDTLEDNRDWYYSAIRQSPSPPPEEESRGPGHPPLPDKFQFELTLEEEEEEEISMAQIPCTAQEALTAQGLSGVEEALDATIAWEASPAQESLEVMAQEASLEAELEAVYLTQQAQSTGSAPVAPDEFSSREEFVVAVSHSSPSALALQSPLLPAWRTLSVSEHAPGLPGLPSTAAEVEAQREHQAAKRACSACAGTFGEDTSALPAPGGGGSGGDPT

[9] = target: Voltage-gated inwardly rectifying potassium channel KCNH2 (Homo sapiens, UniProt Q12809); type: functional
Chain of Voltage-gated inwardly rectifying potassium channel KCNH2 (Q12809 whole entry): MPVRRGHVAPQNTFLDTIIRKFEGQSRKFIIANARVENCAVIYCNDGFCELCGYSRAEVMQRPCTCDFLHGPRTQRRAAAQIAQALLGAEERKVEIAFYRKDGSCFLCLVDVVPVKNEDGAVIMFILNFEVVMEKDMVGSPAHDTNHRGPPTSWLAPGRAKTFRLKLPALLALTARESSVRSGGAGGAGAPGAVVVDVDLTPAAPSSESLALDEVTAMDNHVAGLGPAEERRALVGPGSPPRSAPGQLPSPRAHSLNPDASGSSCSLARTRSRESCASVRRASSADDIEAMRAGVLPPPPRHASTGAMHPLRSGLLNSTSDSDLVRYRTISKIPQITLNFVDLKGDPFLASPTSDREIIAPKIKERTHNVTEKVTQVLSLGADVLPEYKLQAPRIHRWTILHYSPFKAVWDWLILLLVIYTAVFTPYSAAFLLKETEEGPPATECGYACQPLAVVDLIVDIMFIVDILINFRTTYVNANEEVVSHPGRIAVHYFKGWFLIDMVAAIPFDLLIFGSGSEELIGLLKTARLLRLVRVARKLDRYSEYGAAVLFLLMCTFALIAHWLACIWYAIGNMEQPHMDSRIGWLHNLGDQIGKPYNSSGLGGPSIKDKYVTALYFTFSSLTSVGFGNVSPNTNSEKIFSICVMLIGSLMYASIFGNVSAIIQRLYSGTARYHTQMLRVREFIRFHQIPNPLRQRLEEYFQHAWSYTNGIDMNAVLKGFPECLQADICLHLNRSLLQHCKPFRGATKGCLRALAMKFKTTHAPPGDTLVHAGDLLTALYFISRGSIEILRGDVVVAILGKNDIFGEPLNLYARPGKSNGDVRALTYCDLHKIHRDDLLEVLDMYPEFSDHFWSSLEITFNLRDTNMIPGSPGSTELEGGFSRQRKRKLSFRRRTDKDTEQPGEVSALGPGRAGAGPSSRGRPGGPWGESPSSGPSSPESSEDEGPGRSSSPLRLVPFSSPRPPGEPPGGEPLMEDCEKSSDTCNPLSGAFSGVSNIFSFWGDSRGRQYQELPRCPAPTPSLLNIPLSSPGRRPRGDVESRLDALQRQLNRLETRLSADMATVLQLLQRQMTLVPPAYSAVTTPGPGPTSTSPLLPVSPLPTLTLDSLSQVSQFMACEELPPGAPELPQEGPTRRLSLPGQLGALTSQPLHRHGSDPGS

[10] = target: T5, 5-hydroxytryptamine receptor 1A (Homo sapiens, UniProt P08908)
T5 sequence (P08908 whole entry): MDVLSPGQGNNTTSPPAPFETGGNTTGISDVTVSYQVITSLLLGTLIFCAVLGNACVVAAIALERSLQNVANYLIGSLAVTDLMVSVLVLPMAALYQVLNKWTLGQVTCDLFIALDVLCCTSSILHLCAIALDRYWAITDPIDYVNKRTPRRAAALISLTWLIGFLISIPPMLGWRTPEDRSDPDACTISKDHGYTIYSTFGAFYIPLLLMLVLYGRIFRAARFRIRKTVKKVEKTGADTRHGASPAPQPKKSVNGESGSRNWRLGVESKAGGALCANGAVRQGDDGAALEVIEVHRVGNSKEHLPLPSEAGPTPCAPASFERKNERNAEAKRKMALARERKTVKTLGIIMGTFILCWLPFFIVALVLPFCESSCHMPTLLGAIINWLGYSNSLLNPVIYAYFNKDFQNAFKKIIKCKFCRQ

[11] = target: Sodium-dependent dopamine transporter (Homo sapiens, UniProt Q01959)
Also: assay procedure not described here.

C[C@H](CCC(=O)O)[C@H]1CC[C@H]2[C@@H]3[C@H](O)C[C@@H]4C[C@H](O)CC[C@]4(C)[C@H]3C[C@H](O)[C@]12C [CHOLIC ACID]
AC50 [1]: > 30 µM
AC50 [2]: > 30 µM
AC50 [3]: > 30 µM
AC50 (Acetylcholinesterase): > 30 µM
AC50 (Thromboxane A2 receptor [4]): > 30 µM
AC50 (Histamine H3 receptor): > 30 µM
AC50 [5]: 13.8 µM
AC50 [6]: > 30 µM
AC50 (Thromboxane A2 receptor [7]): > 30 µM
AC50 (Prothrombin): > 30 µM
AC50 [8]: > 30 µM
AC50 [9]: > 30 µM
AC50 [10]: > 30 µM
AC50 [11]: > 30 µM

Cc1ncc2c(c1O)COC2c1ccc(Cl)cc1 (centres undefined) [CICLETANINE]
AC50 [1]: > 30 µM
AC50 [2]: > 30 µM
AC50 [3]: > 30 µM
AC50 (Acetylcholinesterase): > 30 µM
AC50 (Thromboxane A2 receptor [4]): > 30 µM
AC50 (Histamine H3 receptor): > 30 µM
AC50 [5]: > 30 µM
AC50 [6]: > 30 µM
AC50 (Thromboxane A2 receptor [7]): > 30 µM
AC50 (Prothrombin): > 30 µM
AC50 [8]: > 30 µM
AC50 [9]: > 30 µM
AC50 [10]: > 30 µM
AC50 [11]: > 30 µM

N#Cc1ccc(Oc2ccc3c(c2)COB3O)cc1 [CRISABOROLE]
AC50 [1]: > 30 µM
AC50 [2]: > 30 µM
AC50 [3]: > 30 µM
AC50 (Acetylcholinesterase): > 30 µM
AC50 (Thromboxane A2 receptor [4]): > 30 µM
AC50 (Histamine H3 receptor): > 30 µM
AC50 [5]: 14.7 µM
AC50 [6]: > 30 µM
AC50 (Thromboxane A2 receptor [7]): > 30 µM
AC50 (Prothrombin): > 30 µM
AC50 [8]: 0.337 µM
AC50 [9]: > 30 µM
AC50 [10]: > 30 µM
AC50 [11]: > 30 µM

CC(=O)O[C@]1(C(C)=O)CC[C@H]2[C@@H]3C=C(Cl)C4=CC(=O)[C@@H]5C[C@@H]5[C@]4(C)[C@H]3CC[C@@]21C [CYPROTERONE ACETATE]
AC50 [1]: 9.17 µM
AC50 [2]: > 30 µM
AC50 [3]: > 30 µM
AC50 (Acetylcholinesterase): > 30 µM
AC50 (Thromboxane A2 receptor [4]): > 30 µM
AC50 (Histamine H3 receptor): > 30 µM
AC50 [5]: > 30 µM
AC50 [6]: > 30 µM
AC50 (Thromboxane A2 receptor [7]): > 3 µM
AC50 (Prothrombin): > 30 µM
AC50 [8]: > 30 µM
AC50 [9]: > 30 µM
AC50 [10]: > 30 µM
AC50 [11]: > 30 µM

CC(=O)O[C@H]1Cc2ccccc2N(C(N)=O)c2ccccc21 [ESLICARBAZEPINE ACETATE]
AC50 [1]: > 30 µM
AC50 [2]: > 30 µM
AC50 [3]: > 30 µM
AC50 (Acetylcholinesterase): > 30 µM
AC50 (Thromboxane A2 receptor [4]): > 30 µM
AC50 (Histamine H3 receptor): > 30 µM
AC50 [5]: > 30 µM
AC50 [6]: > 30 µM
AC50 (Thromboxane A2 receptor [7]): > 30 µM
AC50 (Prothrombin): > 30 µM
AC50 [8]: > 30 µM
AC50 [9]: > 30 µM
AC50 [10]: > 30 µM
AC50 [11]: > 30 µM

C[C@@H]1C[C@H]2[C@@H]3C[C@H](F)C4=CC(=O)C=C[C@]4(C)[C@@]3(F)[C@@H](O)C[C@]2(C)[C@@]1(OC(=O)c1ccco1)C(=O)SCF [FLUTICASONE FUROATE]
AC50 [1]: > 30 µM
AC50 [2]: > 30 µM
AC50 [3]: > 30 µM
AC50 (Acetylcholinesterase): > 30 µM
AC50 (Thromboxane A2 receptor [4]): > 30 µM
AC50 (Histamine H3 receptor): > 30 µM
AC50 [5]: > 30 µM
AC50 [6]: > 30 µM
AC50 (Thromboxane A2 receptor [7]): > 30 µM
AC50 (Prothrombin): > 30 µM
AC50 [8]: > 30 µM
AC50 [9]: > 30 µM
AC50 [10]: > 30 µM
AC50 [11]: > 30 µM

— ChEMBL document CHEMBL5291721, “A preclinical secondary pharmacology resource illuminates target-adverse drug reaction associations of marketed drugs” (Nat Commun, 2023)
